The test system of data set [1] is macrophages IC-21. Put plainly: Binding of 2-μm non-opsonized latex particles by macrophages. The format is cell-based, mouse.
Data set [2] relates to macrophages IC-21. Particulars: peptide at 50 μM, IC-21 cells, 1 h.
The subject of data set [3] is macrophages IC-21. The format is cell-based, mouse.
The test system of another data set is hepatitis C virus. The following applies: in vitro; cited from earlier work.
The conditions of data set [4]: concentrations of the order of tens of μM; cited from earlier work.

Like-named read-outs stand apart in the source and are kept apart here.

With “Ac-STKLSEMLSELGNMDKASKLSRKLSR-NH2 [Mut2]”, the “Change in the phagocytosis index” value in the data set on macrophages IC-21 [1] (concentration range from 0.5 to 50 μM, 6 independent experiments for each peptide) is given as “did not cause significant changes”. In addition, in the data set with macrophages IC-21 [2], the “Toxic effect on cells” value is “not toxic”. Regarding “methyl-β-cyclodextrin [mβCD, reference compound]”, the “Cell activity, % of the control” value in the data set on macrophages IC-21 [3] (3.7 mM mβCD, without a peptide, representative experiment, p < 0.001) is recorded as 121 % of the control. As to SWLRDIWDWICEVLSDFK [C5A], the “Suppression of virus production” value with hepatitis C virus was “more than 5 orders of magnitude”. Regarding “Ac-EWGMAVLWERNRKLKKDLKVLKMLRT-NH2 [Mut1]”, the “Number of particles per cell, % of the control” value in the data set with macrophages IC-21 [1] (Mut1 at 2–10 μM, 7 independent experiments) was ~ 160 % of the control; with macrophages IC-21 [3] (peptide at 2 μM, cells not treated with mβCD, representative experiment (Fig. 5)), 134 % of the control. Besides, in the data set on macrophages IC-21 [1] (number of particles per cell, IC-21, 1 h at 37°C, peptide range 0.5 to 50 μM), the “Concentration range at which maximal stimulatory effect was observed” value was in the range of 4 to 5 µM. Further, the “Phagocytic index relative to control” value in the data set with macrophages IC-21 [1] (peptide at 50 μM, 7 independent experiments) was “returned to the control level”. Moreover, the “Toxic effect on cells” value in the data set on macrophages IC-21 [2] was “did not exert a toxic effect”.

Turning to VLNYYVW, the Toxicity entry in data set [4] is listed as “not toxic”. For ATVLNYYVWRDNS, the Toxicity entry in data set [4] is given as “not toxic”.

Values taken from PMC7709805 (Biochemistry (Moscow) Supplement. Series A, Membrane and …, 2020).
